Legend:
253JBV cells = experiment: Proliferation with predicted CPX urine concentration in 20% normal urine; type: cell-based, human; conditions: 3 days treatment, 50 uM-1.5625 uM CPX in 20% normal urine, 72 h
Description: (§1) We next determined the effect of CPX in normal urine on T24 and 253JBV cells upon everyday treatment for up to 72 h (3 days treatment). The idea behind this experiment is to see the effect of predicted concentration of CPX in human urine on bladder cancer cells as the patient's bladder will be exposed every day to the predicted concentration of CPX. Three sets of plates were used, one plate each for one day treatment, two days treatment and three days treatment of CPX (50-1.5625 uM). T24 and 253JBV cells were incubated with CPX in normal urine (20% normal urine in complete RPMI media). […] The effect of CPX was determined by hexosaminidase assay beyond the 12 hours of varying CPX concentration (25 h, 48 h, and 72 h). In two days treatment, the cells are exposed to 50 uM-1.5625 uM for two days and the effect was determined by hexosaminidase assay at 48 h and 72 h time points. In three days treatment, the cells are exposed to 50 uM-1.5625 uM for three days and the effect was determined by hexosaminidase assay at 72 h time point.
253JBV Cells were incubated with CPX in normal urine (20% normal urine in complete RPMI media). […] The effect of CPX was determined by hexosaminidase assay beyond the 12 hours of varying CPX concentration (25 h, 48 h, and 72 h). […]

T24 cells [1] = experiment: Flow cytometry-based cell cycle analysis; design: species or system human
Description: Flow cytometry-based cell cycle analysis studies were conducted to determine the effect of ciclopirox (CPX) on cell cycle progression in T24 cells (data not shown). […] At 1×IC50 and 2×IC50 concentrations, CPX arrest cells at G0/G1 phase. Cells were treated with CPX and a flow cytometer based analysis was performed.

T24 bladder cancer cells = experiment: Clonogenicity assay; type: cell-based, human; conditions: 48 h treatment, then 10 days
Description: (§2) We next determined the long-term effect of ciclopirox (CPX) on bladder cancer cells using the clonogenicity assay. For this assay, 6-well plates were seeded with 500 viable cells and were allowed to grow for overnight. The cells were then incubated in the presence or absence of various concentrations (1 and 5 μM) of CPX for 48 h. The CPX containing medium was then removed, and the cells were washed in PBS and incubated for an additional 10 days in complete medium. Each treatment was done in triplicate. The colonies obtained were washed with PBS and fixed in 10% formalin for 10 min at room temperature and then washed with PBS followed by staining with crystal violet. The colonies were compared to untreated cells.
(§3) The fresh medium was replaced and allowed to grow for 10 days. The colonies were stained with crystal violet and compared to untreated cells.

[2] = tested on: 253-JBV bladder cancer cells; experiment: Clonogenicity assay; type: cell-based, human; conditions: 48 h treatment, then 10 days
Description: as §2, §3

T24 cells [3] = experiment: Proliferation with predicted CPX urine concentration in 20% normal urine; type: cell-based, human; conditions: 3 days treatment, 50 uM-1.5625 uM CPX in 20% normal urine, 72 h
Description: as §1
T24 Cells were incubated with CPX in normal urine (20% normal urine in complete RPMI media). […] The effect of CPX was determined by hexosaminidase assay beyond the 12 hours of varying CPX concentration (25 h, 48 h, and 72 h). […]

[4] = tested on: Notch1 signaling and γ-secretase complex proteins in T24 cells; experiment: Western blot of Notch signaling pathway proteins; type: cell-based, human; conditions: bladder cancer cell lines (T24)
Description: Western blot studies were performed to detect the effect of CPX on the expression of proteins involved in Notch signaling pathway. Cell lysates were subjected to polyacrylamide gel electrophoresis and blotted onto Immobilon polyvinylidene difluoride membranes (Millipore, Bedford, Mass., USA). Antibodies were purchased from Cell Signaling Technology (Beverly, Mass., USA), Abcam Inc. (Cambridge, Mass., USA) and Santa Cruz Biotechnology Inc. (Santa Cruz, Calif., USA) and specific proteins were detected by the enhanced chemiluminescence system (GE Healthcare, Piscataway, N.J., USA).

[5] = tested on: T24 cells transfected with Notch-1 intracellular domain (NICD); experiment: Ectopic NICD expression and cell proliferation; type: cell-based, human; conditions: CPX 4 μM
Description: We determined whether ectopic expression of NICD reversed ciclopirox (CPX) mediated inhibition of cell proliferation. For this study, T24 Cells were transfected with plasmid EF.hICN1.CMV.GFP encoding the Notch-1 intracellular domain (NICD) or the empty vector EF.v-CMV.GFP (Addgene Inc.) and subsequently treated with CPX (4 μM). Cell proliferation was detected using hexoaminidase assay.

Cc1cc(C2CCCCC2)n(O)c(=O)c1 [CPX, 6-cyclohexyl-1-hydroxy-4-methylpyridin-2(1H)-one]
maximum inhibition of proliferation (253JBV cells): 35%
cell cycle progression (T24 cells [1]): induces S-phase cell cycle arrest
colony formation (T24 bladder cancer cells): inhibited the number and size of colonies compared to control
colony formation [2]: inhibited the number and size of colonies compared to control
maximum inhibition of proliferation (T24 cells [3]): 20%
expression of Notch pathway proteins [4]: significantly inhibited the expression of the γ-secretase complex proteins
rescue of proliferation by NICD [5]: Ectopic expression of NICD reversed CPX mediated inhibition of cell proliferation

— patent US20170304329A1 (THE UNIVERSITY OF KANSAS, priority 2014, published 2017)
